Measured values published in patent US20250145665A1, “MACROCYCLIC PEPTIDES USEFUL AS MODULATORS OF TNF ALPHA” (Bristol-Myers Squibb Company, priority 2023, published 2025).
Read-outs that look alike come from different tables or passages of the source. Starred links: 1 amine or outer side, 2 acyl side, 3 side chain; linkers in the order of their positions; H or OH if unused. Positions of bridges follow the written chain, without caps; N, C: chain ends. Non-standard residues stand in square brackets, D forms with d. Residues, ends and D or L forms follow the SMILES beside them. ξ: configuration not given here. *: point of attachment. Bip(4'-NH) = O=C([C@H](Cc1ccc(-c2ccc(N[*:3])cc2)cc1)N[*:1])[*:2]; Indazole3carbonyl(1-CH2COOH) = O=C(O)Cn1nc(C(=O)*)c2ccccc21; Bip(4'-COOH) = N[C@@H](Cc1ccc(-c2ccc(C(=O)O)cc2)cc1)C(=O)O; Bip(4'-NHAc) = CC(=O)Nc1ccc(-c2ccc(C[C@H](N)C(=O)O)cc2)cc1; X19 = N=C(NCCC[C@@H](N[*:1])C(=O)[*:2])NCc1ccc2ccccc2c1; X66 = N=C(NCCC[C@@H](N[*:1])C(=O)[*:2])NCc1ccc(F)c(F)c1; Ala(imidazol-2-yl) = N[C@@H](Cc1ncc[nH]1)C(=O)O; dArg(ω-Bn) = N=C(NCCC[C@@H](N)C(=O)O)NCc1ccccc1; Ala(morpholin-4-yl) = N[C@@H](CN1CCOCC1)C(=O)O; Phe(3-CONH2) = NC(=O)c1cccc(C[C@H](N)C(=O)O)c1; Bip = N[C@@H](Cc1ccc(-c2ccccc2)cc1)C(=O)O; 2Pal = N[C@@H](Cc1ccccn1)C(=O)O; 2Thi = N[C@@H](Cc1cccs1)C(=O)O; Cha = N[C@@H](CC1CCCCC1)C(=O)O; Chg = N[C@H](C(=O)O)C1CCCCC1; ξAze = O=C(O)C1CCN1; Sar = CNCC(=O)O

Target: TNFα (Homo sapiens, UniProt P01375)
Sequence (P01375 77-233 limits assumed): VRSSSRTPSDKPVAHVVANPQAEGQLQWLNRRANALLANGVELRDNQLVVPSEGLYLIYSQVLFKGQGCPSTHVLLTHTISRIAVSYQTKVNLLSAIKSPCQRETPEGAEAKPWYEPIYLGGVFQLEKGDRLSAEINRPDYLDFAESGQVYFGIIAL
Assay: TNF-Induced HEK-Blue Assay
Assay type: cell-based
[1] = HEK-Blue-CD40L cells, NF-kB-driven secreted alkaline phosphatase reporter, TNFα 0.5 ng/ml, 18 h, read-out: TNF induced HEK-Blue assay IC50 value

Question: Which IC50 [1] does the source give for `CC(=O)Nc1ccc(-c2ccc(C[C@@H]3NC(=O)[C@H](Cc4ccc(-c5ccccc5)cc4)NC(=O)[C@H](CN4CCOCC4)NC(=O)CSC[C@@H](C(=O)NCC(N)=O)NC(=O)[C@H](CC(C)C)NC(=O)[C@H](Cc4cccc(C(N)=O)c4)NC(=O)[C@H](C(C)C)NC(=O)[C@@H]4CCCN4C(=O)[C@H](C(C)C)NC(=O)[C@@H](CCCNC(=N)N)NC(=O)[C@H](CC(=O)O)NC(=O)[C@H](Cc4ccccc4)NC(=O)CN(C)C3=O)cc2)cc1` [Example 455] ({CH2CO}-[Ala(morpholin-4-yl)][Bip][Bip(4'-NHAc)][Sar]FD[dR]VPV[Phe(3-CONH2)]LCG-NH2; thioether N-13) here?
Answer: 50 to 200 nM

Question: `CC(=O)Nc1ccc(-c2ccc(C[C@@H]3NC(=O)[C@H](Cc4ccc(-c5ccccc5)cc4)NC(=O)[C@H](CN4CCOCC4)NC(=O)CSC[C@@H](C(=O)NCC(N)=O)NC(=O)[C@H](CC(C)C)NC(=O)[C@H](Cc4cccc(C(N)=O)c4)NC(=O)[C@H](C(C)C)NC(=O)[C@@H]4CCCN4C(=O)[C@H](C(C)C)NC(=O)[C@@H](CCCNC(=N)N)NC(=O)[C@H](CC(=O)O)NC(=O)[C@H](Cc4ccc(O)cc4)NC(=O)CN(C)C3=O)cc2)cc1` [Example 456] ({CH2CO}-[Ala(morpholin-4-yl)][Bip][Bip(4'-NHAc)][Sar]YD[dR]VPV[Phe(3-CONH2)]LCG-NH2; thioether N-13) was tested. Which IC50 [1] did it give?
Answer: 50 to 200 nM

Question: With `CC(=O)Nc1ccc(-c2ccc(C[C@@H]3NC(=O)[C@H](Cc4ccc(-c5ccc(C(=O)O)cc5)cc4)NC(=O)[C@H](CN4CCOCC4)NC(=O)CSC[C@@H](C(=O)NCC(N)=O)NC(=O)[C@H](CC(C)C)NC(=O)[C@H](Cc4cccc(C(N)=O)c4)NC(=O)[C@H](C(C)C)NC(=O)[C@@H]4CCCN4C(=O)[C@H](C(C)C)NC(=O)[C@@H](CCCNC(=N)N)NC(=O)[C@H](CC(=O)O)NC(=O)[C@H](Cc4ccc(O)cc4)NC(=O)CN(C)C3=O)cc2)cc1` [Example 457] ({CH2CO}-[Ala(morpholin-4-yl)][Bip(4'-COOH)][Bip(4'-NHAc)][Sar]YD[dR]VPV[Phe(3-CONH2)]LCG-NH2; thioether N-13) as the compound, how does the IC50 [1] read?
Answer: < 50 nM

Question: With `CC(=O)Nc1ccc(-c2ccc(C[C@@H]3NC(=O)[C@H](Cc4ccc(-c5ccc(C(=O)O)cc5)cc4)NC(=O)[C@H](CN4CCOCC4)NC(=O)CSC[C@@H](C(=O)NCC(N)=O)NC(=O)[C@H](CC(C)C)NC(=O)[C@H](Cc4cccc(C(N)=O)c4)NC(=O)[C@H](C(C)C)NC(=O)[C@@H]4CCCN4C(=O)[C@H](C(C)C)NC(=O)[C@@H](CCCNC(=N)N)NC(=O)[C@H](CC(=O)O)NC(=O)[C@H](Cc4ccccc4)NC(=O)CN(C)C3=O)cc2)cc1` [Example 458] ({CH2CO}-[Ala(morpholin-4-yl)][Bip(4'-COOH)][Bip(4'-NHAc)][Sar]FD[dR]VPV[Phe(3-CONH2)]LCG-NH2; thioether N-13) as the compound, how does the IC50 [1] read?
Answer: < 50 nM

Question: `CC(=O)Nc1ccc(-c2ccc(C[C@@H]3NC(=O)[C@H](Cc4ccc(-c5ccccc5)cc4)NC(=O)[C@H](CN4CCOCC4)NC(=O)CSC[C@@H](C(=O)NCC(N)=O)NC(=O)[C@H](CC(C)C)NC(=O)[C@H](Cc4cccc(C(N)=O)c4)NC(=O)[C@H](C4CCCCC4)NC(=O)[C@@H]4CCCN4C(=O)[C@H](C(C)C)NC(=O)[C@@H](CCCNC(=N)N)NC(=O)[C@H](CC(=O)O)NC(=O)[C@H](Cc4ccccc4)NC(=O)CN(C)C3=O)cc2)cc1` [Example 459] ({CH2CO}-[Ala(morpholin-4-yl)][Bip][Bip(4'-NHAc)][Sar]FD[dR]VP[Chg][Phe(3-CONH2)]LCG-NH2; thioether N-13) was tested. Which IC50 [1] did it give?
Answer: 50 to 200 nM

Question: Which IC50 does the source give for `CC(=O)Nc1ccc(-c2ccc(C[C@@H]3NC(=O)[C@H](Cc4ccc(-c5ccccc5)cc4)NC(=O)[C@H](CN4CCOCC4)NC(=O)CSC[C@@H](C(=O)NCC(N)=O)NC(=O)[C@H](CC(C)C)NC(=O)[C@H](Cc4cccc(C(N)=O)c4)NC(=O)[C@H](C4CCCCC4)NC(=O)[C@@H]4CCCN4C(=O)[C@H](C(C)C)NC(=O)[C@@H](CCCNC(=N)N)NC(=O)[C@H](CC(=O)O)NC(=O)[C@H](Cc4ccc(O)cc4)NC(=O)CN(C)C3=O)cc2)cc1` [Example 460] ({CH2CO}-[Ala(morpholin-4-yl)][Bip][Bip(4'-NHAc)][Sar]YD[dR]VP[Chg][Phe(3-CONH2)]LCG-NH2; thioether N-13) here?
Answer: < 50 nM

Question: `CC(=O)Nc1ccc(-c2ccc(C[C@@H]3NC(=O)[C@H](Cc4ccc(-c5ccccc5)cc4)NC(=O)[C@H](CN4CCOCC4)NC(=O)CSC[C@@H](C(=O)NCC(N)=O)NC(=O)[C@H](CC(C)C)NC(=O)[C@H](Cc4ncc[nH]4)NC(=O)[C@H](C(C)C)NC(=O)[C@@H]4CCCN4C(=O)[C@H](C(C)C)NC(=O)[C@@H](CCCNC(=N)N)NC(=O)[C@H](CC(=O)O)NC(=O)[C@H](Cc4cccs4)NC(=O)CN(C)C3=O)cc2)cc1` [Example 461] ({CH2CO}-[Ala(morpholin-4-yl)][Bip][Bip(4'-NHAc)][Sar][2Thi]D[dR]VPV[Ala(imidazol-2-yl)]LCG-NH2; thioether N-13) was tested. Which IC50 [1] did it give?
Answer: < 50 nM

Question: How did the IC50 [1] turn out when `CC(=O)Nc1ccc(-c2ccc(C[C@@H]3NC(=O)[C@H](Cc4ccc(-c5ccc(C(=O)O)cc5)cc4)NC(=O)[C@H](CN4CCOCC4)NC(=O)CSC[C@@H](C(=O)NCC(N)=O)NC(=O)[C@H](CC(C)C)NC(=O)[C@H](Cc4ncc[nH]4)NC(=O)[C@H](C(C)C)NC(=O)[C@@H]4CCCN4C(=O)[C@H](C(C)C)NC(=O)[C@@H](CCCNC(=N)N)NC(=O)[C@H](CC(=O)O)NC(=O)[C@H](Cc4cccs4)NC(=O)CN(C)C3=O)cc2)cc1` [Example 462] ({CH2CO}-[Ala(morpholin-4-yl)][Bip(4'-COOH)][Bip(4'-NHAc)][Sar][2Thi]D[dR]VPV[Ala(imidazol-2-yl)]LCG-NH2; thioether N-13) was run?
Answer: < 50 nM

Question: With `CC(=O)Nc1ccc(-c2ccc(C[C@@H]3NC(=O)[C@H](Cc4ccc(-c5ccccc5)cc4)NC(=O)[C@H](CN4CCOCC4)NC(=O)CSC[C@@H](C(=O)NCC(N)=O)NC(=O)[C@H](CC(C)C)NC(=O)[C@H](Cc4ncc[nH]4)NC(=O)[C@H](C4CCCCC4)NC(=O)[C@@H]4CCCN4C(=O)[C@H](C(C)C)NC(=O)[C@@H](CCCNC(=N)N)NC(=O)[C@H](CC(=O)O)NC(=O)[C@H](Cc4cccs4)NC(=O)CN(C)C3=O)cc2)cc1` [Example 463] ({CH2CO}-[Ala(morpholin-4-yl)][Bip][Bip(4'-NHAc)][Sar][2Thi]D[dR]VP[Chg][Ala(imidazol-2-yl)]LCG-NH2; thioether N-13) as the compound, how does the IC50 [1] read?
Answer: 50 to 200 nM

Question: For `CC[C@H](C)[C@@H]1NC(=O)[C@@H]2CCCN2C(=O)[C@H](C(C)C)NC(=O)[C@@H](CCCNC(=N)N)NC(=O)[C@H](CC(=O)O)NC(=O)[C@H](Cc2ccccn2)NC(=O)CN(C)C(=O)[C@H](Cc2ccc(-c3ccc(NC(C)=O)cc3)cc2)NC(=O)[C@H](Cc2ccc(-c3ccccc3)cc2)NC(=O)[C@H](CN2CCOCC2)NC(=O)CSC[C@@H](C(=O)NCC(N)=O)NC(=O)[C@H](CC(C)C)NC(=O)[C@H](Cc2ncc[nH]2)NC1=O` [Example 464] ({CH2CO}-[Ala(morpholin-4-yl)][Bip][Bip(4'-NHAc)][Sar][2Pal]D[dR]VPI[Ala(imidazol-2-yl)]LCG-NH2; thioether N-13), which IC50 [1] is on record?
Answer: < 50 nM

Question: How did the IC50 [1] turn out when `CC(=O)Nc1ccc(-c2ccc(C[C@@H]3NC(=O)[C@H](Cc4ccc(-c5ccccc5)cc4)NC(=O)[C@H](CC4CCCCC4)NC(=O)CSC[C@@H](C(=O)NCC(N)=O)NC(=O)[C@H](CC(C)C)NC(=O)[C@H](Cc4ncc[nH]4)NC(=O)[C@H](C(C)C)NC(=O)C4CCN4C(=O)[C@H](C(C)C)NC(=O)[C@@H](CCCNC(=N)N)NC(=O)[C@H](CC(=O)O)NC(=O)[C@@H]4CCCN4C(=O)CN(C)C3=O)cc2)cc1` (some centres unmarked) [Example 466] ({CH2CO}-[Cha][Bip][Bip(4'-NHAc)][Sar]PD[dR]V[ξAze]V[Ala(imidazol-2-yl)]LCG-NH2; thioether N-13) was run?
Answer: < 50 nM

Question: For `CC(C)C[C@@H]1NC(=O)[C@H](CCCNC(=N)N)NC(=O)[C@H](C(C)C)NC(=O)[C@@H]2CCCN2C(=O)[C@H](C(C)C)NC(=O)[C@@H](CCCNC(=N)NCc2ccccc2)NC(=O)[C@H](CC(=O)O)NC(=O)[C@@H]2CCCN2C(=O)CN(C)C(=O)[C@H](Cc2ccc(-c3ccc(NC(=O)c4nn(CC(=O)O)c5ccccc45)cc3)cc2)NC(=O)[C@H](Cc2ccc(-c3ccccc3)cc2)NC(=O)[C@H](CN2CCOCC2)NC(=O)CSC[C@@H](C(=O)NCC(N)=O)NC1=O` [Example 467] ({CH2CO}-[Ala(morpholin-4-yl)][Bip][Bip(4'-NH)](Indazole3carbonyl(1-CH2COOH))[Sar]PD[dArg(ω-Bn)]VPVRLCG-NH2; thioether N-13), which IC50 is on record?
Answer: < 50 nM

Question: With `CC(C)C[C@@H]1NC(=O)[C@H](CCCNC(=N)N)NC(=O)[C@H](C(C)C)NC(=O)[C@@H]2CCCN2C(=O)[C@H](C(C)C)NC(=O)[C@@H](CCCNC(=N)NCc2ccc3ccccc3c2)NC(=O)[C@H](CC(=O)O)NC(=O)[C@@H]2CCCN2C(=O)CN(C)C(=O)[C@H](Cc2ccc(-c3ccc(NC(=O)c4nn(CC(=O)O)c5ccccc45)cc3)cc2)NC(=O)[C@H](Cc2ccc(-c3ccccc3)cc2)NC(=O)[C@H](CN2CCOCC2)NC(=O)CSC[C@@H](C(=O)NCC(N)=O)NC1=O` [Example 468] ({CH2CO}-[Ala(morpholin-4-yl)][Bip][Bip(4'-NH)](Indazole3carbonyl(1-CH2COOH))[Sar]PD[X19]VPVRLCG-NH2; thioether N-13) as the compound, how does the IC50 read?
Answer: < 50 nM

Question: For `CC(C)C[C@@H]1NC(=O)[C@H](CCCNC(=N)N)NC(=O)[C@H](C(C)C)NC(=O)[C@@H]2CCCN2C(=O)[C@H](C(C)C)NC(=O)[C@@H](CCCNC(=N)NCc2ccc(F)c(F)c2)NC(=O)[C@H](CC(=O)O)NC(=O)[C@@H]2CCCN2C(=O)CN(C)C(=O)[C@H](Cc2ccc(-c3ccc(NC(=O)c4nn(CC(=O)O)c5ccccc45)cc3)cc2)NC(=O)[C@H](Cc2ccc(-c3ccccc3)cc2)NC(=O)[C@H](CN2CCOCC2)NC(=O)CSC[C@@H](C(=O)NCC(N)=O)NC1=O` [Example 469] ({CH2CO}-[Ala(morpholin-4-yl)][Bip][Bip(4'-NH)](Indazole3carbonyl(1-CH2COOH))[Sar]PD[X66]VPVRLCG-NH2; thioether N-13), which IC50 is on record?
Answer: < 50 nM
